The values that follow come from publication PMC3402633 (2012).

This test concerns the target tubulin (αβ-tubulin heterodimer). Kind of test: competition with [3H]colchicine binding. The arrangement: species or system Bos taurus.

For orientation: Ki means a measure of affinity in units of concentration, obtained from inhibition or displacement. Higher therefore signals lower affinity.

`COC(=O)C1=CC[C@@]23CC[C@@H]([C@@](C)(/C=C/C=C(\C)C(=O)O)OC2=O)[C@@]3(OC(C)=O)CC1` [PAB, pseudolaric acid B] yielded a Ki of 12 to 15 µM.
